We go through nine compounds from PMC4980666, “N-acylhydrazone inhibitors of influenza virus PA endonuclease with versatile metal binding modes” (Scientific Reports, 2016).

Data set [1] relates to influenza virus endonuclease. As to conditions: read-out: IC50 in enzymatic assays; cited from earlier work.
Data set [2] has as its system influenza A virus (strain A/PR/8/34). The data set can be described thus: microbe, parasite or virus in culture. It counts as cell-based. The note with it: for EC90 / EC99: Influenza A virus, 24 h; for EC90: read-out: Virus yield assay Antiviral activity EC90; for EC99: read-out: Virus yield assay Antiviral activity EC99.
For data set [3], the target named is influenza virus vRNPs reconstituted in HEK293T cells (Influenza A virus, UniProt P03433). The data set can be described thus: vRNP reconstitution assay in HEK293T cells. It counts as cell-based.
The subject of data set [4] is untransfected HEK293T cells. As to conditions: human, 24 h, 200 μM.
Data set [5] in a line: in vitro. The note with it: dog.
Data set [6] is described as follows: in vitro. As to conditions: human, vRNP reconstitution assay Cytotoxicity CC50.
A short description of data set [7]: MTS cell viability assay in uninfected MDCK cells. The note with it: dog. On the technique in general: Tetrazolium assays rely on reduction of a dye to a coloured formazan, in cell work by metabolically active cells.
The nature of data set [8]: MTS cell viability assay in untransfected HEK293T cells. As to conditions: human, vRNP reconstitution assay Cytotoxicity CC50, untransfected HEK293T cells.
Setting [9] is: PR/8, 1-log10 reduction in virus titer, qPCR, MDCK cells.
[10] abbreviates: PR/8, 2-log10 reduction in virus titer, qPCR, MDCK cells.
[11] abbreviates: read-out: vRNP reconstitution assay Activity EC50.

pEC50, pIC50: −log10 of the molar value. Like-named read-outs stand apart in the source and are kept apart here.

On to `O=c1[nH]c(-c2ccc(-c3nnn[nH]3)cc2)ncc1O` [2-(4-(1H-tetrazol-5-yl)phenyl)-5-hydroxypyrimidin-4(3H)-one], for which the pIC50 in data set [1] is 6.82.
On to `O=C(N/N=C/c1cccc(O)c1O)c1cc(O)c(O)c(O)c1` [Compound 18], for which, in data set [2] (setting [9]), the EC90 is 2.2 µM. Further, the EC99 in data set [2] (setting [10]) was determined as 6.2 µM. Moreover, the “SI (selectivity index, ratio between CC50 and EC90)” value in data set [2] (MDCK cells) is on record as above 91. In data set [3] (setting [11]), the pEC50 was 5.48. Also, the “cytotoxicity in the vRNP assay” value in data set [4] is on record as “not cytotoxic at 200 μM”. Moreover, the CC50 at 24 h in the data set “in vitro [5]” and in “in vitro [6]” was above 200 µM each time.
For the compound `COc1cccc(/C=N/NC(=O)c2cc(O)c(O)c(O)c2)c1O` [Compound 19], in data set [2] (setting [9]), the EC90 came out at 26 µM. Further, the EC99 in data set [2] (setting [10]) is 53 µM. In addition, the “SI (selectivity index, ratio between CC50 and EC90)” value in data set [2] (MDCK cells) is given as above 7.7. Besides, the pEC50 in data set [3] (setting [11]) was 5.24. The “cytotoxicity in the vRNP assay” value in data set [4] was “not cytotoxic at 200 μM”. Besides, the CC50 at 24 h in the data set “in vitro [5]” and in “in vitro [6]” was above 200 µM in each case.
Take `O=C(N/N=C/c1ccc[nH]1)c1cc(O)c(O)c(O)c1` [Compound 25]: the EC90 in data set [2] (setting [9]) was determined as 70 µM. The EC99 in data set [2] (setting [10]) was 132 µM. In addition, the “SI (selectivity index, ratio between CC50 and EC90)” value in data set [2] (MDCK cells) was above 2.9. In data set [3], the “difference between EC50 in the vRNP assay and EC90 in the virus yield assay” value is at least 8 fold. The pEC50 in data set [3] (setting [11]) was 5.39. The CC50 at 24 h in “in vitro [5]” and in “in vitro [6]” was above 200 µM in each case.
For the compound `O=C(O)c1ccc(-c2cccc(/C=N/NC(=O)c3cc(O)c(O)c(O)c3)c2)cc1` [Compound 26], in data set [2] (setting [9]), the EC90 was 13 µM. Also, the EC99 in data set [2] (setting [10]) came out at 36 µM. Moreover, the “SI (selectivity index, ratio between CC50 and EC90)” value in data set [2] (MDCK cells) is given as above 15. Also, the pEC50 in data set [3] (setting [11]) was 5.26. The CC50 at 24 h in the data set “in vitro [5]” and in “in vitro [6]” was above 200 µM in each case.
As to `NNC(=O)c1cc(O)c(O)c(O)c1` [Compound 28, 3,4,5-trihydroxybenzohydrazide], in data set [2] (setting [9]), the EC90 amounted to 85 µM. Further, the EC99 in data set [2] (setting [10]) stood at 158 µM. In addition, in data set [2] (MDCK cells), the “SI (selectivity index, ratio between CC50 and EC90)” value is above 2.4. The “difference between EC50 in the vRNP assay and EC90 in the virus yield assay” value in data set [3] was at least 8 fold. Besides, the pEC50 in data set [3] (setting [11]) was 5.14. The CC50 at 24 h in the data set “in vitro [5]” and in “in vitro [6]” was above 200 µM in each case.
As to `O=C(O[C@@H]1Cc2c(O)cc(O)cc2O[C@@H]1c1cc(O)c(O)c(O)c1)c1cc(O)c(O)c(O)c1` [EGCG, epigallocatechin-3-gallate], the pIC50 in data set [1] is 5.72.
In the case of `CC(C)/C=C1\N=C(CC(C)C)C(=O)N(O)C1=O` [Flutimide], the pIC50 in data set [1] was 5.26.
In the case of `NC(=O)c1ncn([C@@H]2O[C@H](CO)[C@@H](O)[C@H]2O)n1` [Ribavirin, reference compound], in data set [2] (PR/8, MDCK), the EC90 came out at 8.5 µM and the EC99 worked out at 13 µM. This compound had a pEC50 in data set [3] of 5.03. This compound also showed a CC50 at 24 h in data set [7] above 200 µM. This compound displayed a CC50 at 24 h in data set [8] above 200 µM.

The pIC50 is the negative decadic logarithm of the IC50, by convention in mol/L. Usually EC90 stands for the concentration needed for an effect of 90%. For orientation: EC99 means the point of the concentration-response curve where the effect stands at 99%. One may read the pEC50 as −log10 of the EC50, conventionally taken in molar units.
